Laboratory results: PubChem BioAssay AID248 (DTP/NCI, 2004)
Toxic doses and inconclusive results are not listed. Cut-off read from the data, not from the text of the source: active = T/C of 150% or more; inactive = T/C below 125%.

Test system: L1210 leukemia ip in BDF1 mice, survival T/C
Test: NCI In Vivo Anticancer Drug Screen. Data for tumor model L1210 Leukemia (intraperitoneal) in B6D2F1 (BDF1) mice
Conditions: higher = longer survival
Method in brief: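 Transplanted-tumor mice were given test agent; controls received vehicle only. Survival readings from the two groups were divided (treated over control).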

[1] = endpoint: mean survival time, dose: 100.0 mg/kg/injection, schedule: Q01DX009 (ip), vehicle: Klucel (hydroxypropylcellulose) (HPC)
[2] = endpoint: mean survival time, dose: 100.0 mg/kg/injection, schedule: Q04DX003 (ip), vehicle: Klucel (hydroxypropylcellulose) (HPC)
[3] = endpoint: mean survival time, dose: 200.0 mg/kg/injection, schedule: Q01DX009 (ip), vehicle: Klucel (hydroxypropylcellulose) (HPC)
[4] = endpoint: mean survival time, dose: 200.0 mg/kg/injection, schedule: Q04DX003 (ip), vehicle: Klucel (hydroxypropylcellulose) (HPC)
[5] = endpoint: mean survival time, dose: 50.0 mg/kg/injection, schedule: Q01DX009 (ip), vehicle: Klucel (hydroxypropylcellulose) (HPC)
[6] = endpoint: mean survival time, dose: 50.0 mg/kg/injection, schedule: Q04DX003 (ip), vehicle: Klucel (hydroxypropylcellulose) (HPC)
[7] = endpoint: mean survival time, dose: 100.0 mg/kg/injection, schedule: Q04DX003 (ip), vehicle: saline with Tween-80
[8] = endpoint: mean survival time, dose: 200.0 mg/kg/injection, schedule: Q04DX003 (ip), vehicle: saline with Tween-80
[9] = endpoint: mean survival time, dose: 400.0 mg/kg/injection, schedule: Q04DX003 (ip), vehicle: saline with Tween-80

Measured: T/C

CCCCCCCCCCCCCCCCCC[N+](C)(C)Cc1cc(=O)c(O)co1
inactive: endpoint: mean survival time, dose: 6.25 mg/kg/injection, schedule: Q01DX009 (ip), vehicle: saline 89 % of control | endpoint: mean survival time, dose: 12.5 mg/kg/injection, schedule: Q01DX009 (ip), vehicle: saline 106 % of control | endpoint: mean survival time, dose: 25.0 mg/kg/injection, schedule: Q01DX009 (ip), vehicle: saline 99 % of control

CSC(N)=Nc1c(C)cccc1C
inactive: endpoint: mean survival time, dose: 50.0 mg/kg/injection, schedule: Q04DX003 (ip), vehicle: saline 102 % of control | endpoint: mean survival time, dose: 100.0 mg/kg/injection, schedule: Q01DX001 (ip), vehicle: saline 98 % of control | endpoint: mean survival time, dose: 100.0 mg/kg/injection, schedule: Q04DX003 (ip), vehicle: saline 106 % of control | endpoint: mean survival time, dose: 200.0 mg/kg/injection, schedule: Q01DX001 (ip), vehicle: saline 100 % of control | endpoint: mean survival time, dose: 200.0 mg/kg/injection, schedule: Q04DX003 (ip), vehicle: saline 101 % of control

COC1=CC23CCN(C)C(CCc4cc(OC)c(OC)c(OC)c42)C3=CC1=O (centres undefined)
inactive: endpoint: mean survival time, dose: 25.0 mg/kg/injection, schedule: Q04DX002 (ip), vehicle: saline 114 % of control | endpoint: mean survival time, dose: 50.0 mg/kg/injection, schedule: Q04DX002 (ip), vehicle: saline 108 % of control | endpoint: mean survival time, dose: 100.0 mg/kg/injection, schedule: Q04DX002 (ip), vehicle: saline 111 % of control | endpoint: mean survival time, dose: 200.0 mg/kg/injection, schedule: Q04DX002 (ip), vehicle: saline 105 % of control | endpoint: mean survival time, dose: 400.0 mg/kg/injection, schedule: Q04DX002 (ip), vehicle: saline 103 % of control

COc1ccc(C2CCC(=O)CC2C(=O)O)cc1 (centres undefined)
inactive: [1] 92 % of control | [2] 110 % of control | [3] 97 % of control | [4] 98 % of control | endpoint: mean survival time, dose: 400.0 mg/kg/injection, schedule: Q01DX009 (ip), vehicle: Klucel (hydroxypropylcellulose) (HPC) 103 % of control | endpoint: mean survival time, dose: 400.0 mg/kg/injection, schedule: Q04DX003 (ip), vehicle: Klucel (hydroxypropylcellulose) (HPC) 93 % of control

C=C=[CH][Sn]([c]1ccccc1)([c]1ccccc1)[c]1ccccc1
inactive: endpoint: mean survival time, dose: 12.5 mg/kg/injection, schedule: Q01DX009 (ip), vehicle: Klucel (hydroxypropylcellulose) (HPC) 100 % of control | endpoint: mean survival time, dose: 12.5 mg/kg/injection, schedule: Q04DX003 (ip), vehicle: Klucel (hydroxypropylcellulose) (HPC) 99 % of control | endpoint: mean survival time, dose: 25.0 mg/kg/injection, schedule: Q01DX009 (ip), vehicle: Klucel (hydroxypropylcellulose) (HPC) 102 % of control | endpoint: mean survival time, dose: 25.0 mg/kg/injection, schedule: Q04DX003 (ip), vehicle: Klucel (hydroxypropylcellulose) (HPC) 106 % of control | [5] 89 % of control | [6] 99 % of control

CCCCCCOCCN1CCN(CCCN2c3ccccc3Sc3ccc(C(F)(F)F)cc32)CC1
inactive: endpoint: mean survival time, dose: 12.5 mg/kg/injection, schedule: Q04DX003 (ip), vehicle: saline with Tween-80 106 % of control | endpoint: mean survival time, dose: 25.0 mg/kg/injection, schedule: Q04DX003 (ip), vehicle: saline with Tween-80 101 % of control | endpoint: mean survival time, dose: 50.0 mg/kg/injection, schedule: Q04DX003 (ip), vehicle: saline with Tween-80 101 % of control | [7] 93 % of control

O=C(O)Cc1ccc(Br)cc1
inactive: [7] 93 % of control | [8] 96 % of control | [9] 102 % of control

O=[N+]([O-])c1cccc(OCCOc2ccc(S(=O)(=O)F)cc2)c1
inactive: [7] 106 % of control | [8] 88 % of control | [9] 93 % of control

COC(=O)c1cccc(N=NN(C)C)c1
inactive: [5] 105 % of control | [1] 119 % of control | [3] 108 % of control | endpoint: median survival time, dose: 23.0 mg/kg/injection, schedule: Q01DX009 (ip), vehicle: steriod suspending solution 110 % of control | endpoint: median survival time, dose: 65.0 mg/kg/injection, schedule: Q01DX001 (ip), vehicle: steriod suspending solution 100 % of control | endpoint: median survival time, dose: 65.0 mg/kg/injection, schedule: Q04DX003 (ip), vehicle: steriod suspending solution 105 % of control | endpoint: median survival time, dose: 108.0 mg/kg/injection, schedule: Q01DX001 (ip), vehicle: steriod suspending solution 100 % of control | endpoint: median survival time, dose: 108.0 mg/kg/injection, schedule: Q04DX003 (ip), vehicle: steriod suspending solution 110 % of control | endpoint: median survival time, dose: 180.0 mg/kg/injection, schedule: Q01DX001 (ip), vehicle: steriod suspending solution 110 % of control | endpoint: median survival time, dose: 300.0 mg/kg/injection, schedule: Q01DX001 (ip), vehicle: steriod suspending solution 110 % of control | endpoint: median survival time, dose: 833.0 mg/kg/injection, schedule: Q01DX001 (ip), vehicle: steriod suspending solution 100 % of control

COC(=O)N1C(N2CCCC2=O)C(C)(C)S1(=O)=O (centres undefined)
inactive: endpoint: mean survival time, dose: 75.0 mg/kg/injection, schedule: Q04DX003 (ip), vehicle: Klucel (hydroxypropylcellulose) (HPC) 102 % of control | endpoint: mean survival time, dose: 150.0 mg/kg/injection, schedule: Q04DX003 (ip), vehicle: Klucel (hydroxypropylcellulose) (HPC) 94 % of control | endpoint: mean survival time, dose: 300.0 mg/kg/injection, schedule: Q04DX003 (ip), vehicle: Klucel (hydroxypropylcellulose) (HPC) 89 % of control

Cc1ccc(NC2=C(Cl)C(=O)C(Nc3ccc(C)cc3)=C(Cl)C2=O)cc1
inactive: endpoint: mean survival time, dose: 50.0 mg/kg/injection, schedule: Q01DX001 (ip), vehicle: carboxymethylcellulose (CMC) 97 % of control | endpoint: mean survival time, dose: 100.0 mg/kg/injection, schedule: Q01DX001 (ip), vehicle: carboxymethylcellulose (CMC) 95 % of control | endpoint: mean survival time, dose: 200.0 mg/kg/injection, schedule: Q01DX001 (ip), vehicle: carboxymethylcellulose (CMC) 90 % of control | endpoint: mean survival time, dose: 400.0 mg/kg/injection, schedule: Q01DX001 (ip), vehicle: carboxymethylcellulose (CMC) 92 % of control

CC(C)=CCCC(O)C1CCC2C3CCC4CCCCC4(C)C3CCC12C (centres undefined)
inactive: endpoint: mean survival time, dose: 100.0 mg/kg/injection, schedule: Q04DX002 (ip), vehicle: DMSO 96 % of control | endpoint: mean survival time, dose: 200.0 mg/kg/injection, schedule: Q04DX002 (ip), vehicle: DMSO 96 % of control | endpoint: mean survival time, dose: 400.0 mg/kg/injection, schedule: Q04DX002 (ip), vehicle: DMSO 92 % of control

O=C(O)CSC(SCC(=O)O)c1ccccc1Cl
inactive: [6] 96 % of control | [2] 100 % of control | [4] 96 % of control
